One experiment concerns human PMN. Kind of experiment: Microfluidic chamber screening of PMN chemotaxis in an IL-8 gradient. It counts as cell-based. On the procedure:
The fabrication and surface modification of the microfluidic devices were prepared as in refs. (9,22). Whole blood (5-10 μl) diluted in HBSS (1:10, v/v) was introduced into the chemotaxis chamber via a cell inlet and neutrophils were captured along the chamber via P-selectin tethering. Next, the transversal gradient of IL-8 (0-10 nM) was introduced to the chemotaxis chamber. After fifteen minutes, novel DHEA metabolites (at a uniform concentration) were introduced to the chemotaxis chamber from the second gradient generator network, and 10 nM IL-8 gradient was maintained Single-cell neutrophil chemotaxis was recorded using microscopy (Nikon, Eclipse E600) equipped with a video camera (Diagnostic, RT Slider) and subject to analysis using ImageJ software (9).
In parallel to structure elucidation, chemotactic screening of HPLC isolated DHEA metabolites obtained from mouse brain was carried out utilizing microfluidic chamber (FIG. 1c). After IL-8 (0-10 nM gradient) was introduced to the main channel of the microfluidic device, P-selectin tethered leukocytes rapidly migrated along the IL-8 chemotactic gradient at an average rate of 2.3 μm/min. After 15 min, the mixture of metabolites was infused into the microfluidic main channel while an IL-8 (0-10 nM) gradient was maintained (FIG. 1c, left panel). […] This decrease in chemotaxic velocity was maintained even after the gradient was switched back to IL-8.
HPLC isolated dioxygenated DHEA products were individually screened for direct PMN actions using microfluidic chambers.

Experiment [1] concerns platelet-monocyte aggregates. Kind of experiment: PAF-stimulated platelet-monocyte aggregate formation in whole blood. It counts as cell-based, human. The following applies: 100 nM PAF; for Decrease of platelet-monocyte aggregate formation: 10 pM compound, human whole blood. The protocol:
(§1) FIG. 5. […] Human whole blood stimulated with PAF (100 nM) was incubated with 10,17-diHDHEA, 15-HEDPEA or DHEA for 30 min, 37° C. The incubation was stopped via ice-cold RBC lysis buffer. The majority of RBCs were removed and remaining cells were labeled. Platelet-leukocyte aggregate formation or P-selectin mobilization was analyzed using FACS (see Methods). Dose response inhibition of a) platelet-monocyte aggregate formation, b) representative dot plot of platelet-monocyte aggregates, c) platelet-PMN aggregate formation, d) platelet P-selectin mobilization, with indicated products. (diamonds 10,17-diHDHEA; triangles 15-HEDPEA; squares DHEA). Results are mean±SEM of n=5-6 donors. P<0.05 compared to vehicle treatment.
(§2) Whole blood was incubated with either vehicle, HPLC isolated 10,17-diHDHEA or 15-HEDPEA (0.01-100 nM) for 15 min at 37° C. with intermittent mixing. Vehicle or PAF (100 nM, PAF C-16, Cayman Chemical, Ann Arbor, Mich.) was added for another 30 min at 37° C. with intermittent mixing. Incubation was stopped by ice-cold red blood cell lysis buffer (10 min at 4° C.). Cells were collected using centrifugation (210 g, 5 min, 4° C.) then fixed with 3% formalin (15 min, 4° C.). Cells were stained with FITC-anti-human CD41 (1:100, v/v) and PE-anti-human-CD62P (1:100, v/v) for 20 min at 4° C., and were analyzed using a flow cytometry and Cell Quest software as in (23). Cellular composition within whole blood was determined by forward and side scattering as well as cell-specific markers, anti-human-CD41 for platelets, anti-human-CD14 for monocytes and anti-human-CD16 for neutrophils.

Experiment [2] deals with platelet-leukocyte aggregates. Put plainly: PAF-stimulated platelet-leukocyte aggregate formation in whole blood (overall statements). The class given is cell-based. The following applies: human whole blood, 100 nM PAF, 0.01-100 nM dose range. The protocol: as §1, §2
The target of experiment [3] is T1, human CB2 receptor (Homo sapiens, UniProt P34972). Put plainly: CB2 beta-arrestin receptor activation (PathHunter chemiluminescence). It counts as cell-based. The protocol: (§3) FIG. 4. […] Ligand receptor interactions were determined by increases in chemiluminescence generated upon interaction of the EA labeled beta arrestin with the Pro-Link tagged receptor (see Methods). […] See text for more details.
(§4) Receptor activation with the CB2 beta arrestin system was carried out essentially as in (20,21). HEK cells stably overexpressing human CB2 receptor tagged with Pro-Link and EA labeled beta-arrestin (Discoverx, Fremont Calif.) were plated at 20,000 cells/well of a 96 well plate. […] Ligand receptor interaction was determined by measuring chemiluminescence using the Pathhunter EFC detection kit (Discoverx, Fremont, Calif.), generated upon coupling of the EA labeled beta arrestin with the Pro-Link tagged receptor, with a plate reader (Envision, Perkin Elmer, Santa Clara, Calif.).
(§5) To this end, recombinant human CB receptors were overexpressed in a beta-arrestin system as described in Experimental Procedures.

In a further experiment the test system is platelet P-selectin. Kind of experiment: Platelet P-selectin surface expression in PAF-stimulated whole blood. The class given is cell-based, human. The following applies: 10 pM to 100 nM. The protocol: as §1
(§6) Whole blood was incubated with either vehicle, HPLC isolated 10,17-diHDHEA or 15-HEDPEA (0.01-100 nM) for 15 min at 37° C. with intermittent mixing. […] Cells were stained with FITC-anti-human CD41 (1:100, v/v) and PE-anti-human-CD62P (1:100, v/v) for 20 min at 4° C., and were analyzed using a flow cytometry and Cell Quest software as in (23). Cellular composition within whole blood was determined by forward and side scattering as well as cell-specific markers, anti-human-CD41 for platelets, anti-human-CD14 for monocytes and anti-human-CD16 for neutrophils.

The next experiment concerns platelet-PMN aggregates. Put plainly: PAF-stimulated platelet-PMN aggregate formation in whole blood. The following applies: 100 nM PAF. The class given is cell-based, human. On the procedure: as §1, §6
For experiment [4], the target named is T2, CB1 receptor (Homo sapiens, UniProt P21554). Kind of experiment: CB1 beta-arrestin receptor activation. The class given is cell-based. Details: expressed in transfected cells; host or cells: HEK cells. The settings on record: HEK cells overexpressing CB1, beta-arrestin system. On the procedure: as §3, §5
Experiment [5] concerns mouse ischemia reperfusion second organ lung injury. Kind of experiment: Hind limb ischemia / second organ lung reperfusion injury. It counts as in vivo. The protocol:
Supplemental FIG. 4. 15-HEDPEA is protective in mouse ischemia reperfusion second organ lung injury. Mice were subjected to hind limb ischemia for 1 hr using tourniquets. 15-HEDPEA was intravenously administered 5 min before tourniquet removal. After 2 hr reperfusion, mouse lungs were harvested and the tissue levels of myeloperoxidase (MPO) were determined using a mouse MPO ELISA. Results are expressed as reduction in lung associated decrease in leukocyte myeloperoxidase values (n=3-6).
Murine hind limb vascular occlusion second organ lung reperfusion injury was performed using 6- to 8-week-old FVB male mice and carried out as in (24).

For experiment [6], the target named is T1, human CB2 receptor. Kind of experiment: AM630 inhibition of ligand-stimulated activation of cells over-expressing CB2. The class given is cell-based. On the procedure: as §3, §4, §5
The target in experiment [7] is T2, CB1 receptor. The following applies: from reference 31; read-out: Ki, affinity to CB1 receptor; cited from earlier work.
[8] abbreviates: 10 nM compound, 0-10 nM IL-8 gradient.
[9] abbreviates: HEK cells overexpressing human CB2, beta-arrestin system, 1 h, 37° C., 1 pM to 100 nM, read-out: EC50 for activation of CB2.

“Also recorded” adds a separate entry of the source. Like-named read-outs stand apart in the source and are kept apart here.

T1 sequence (P34972 whole entry): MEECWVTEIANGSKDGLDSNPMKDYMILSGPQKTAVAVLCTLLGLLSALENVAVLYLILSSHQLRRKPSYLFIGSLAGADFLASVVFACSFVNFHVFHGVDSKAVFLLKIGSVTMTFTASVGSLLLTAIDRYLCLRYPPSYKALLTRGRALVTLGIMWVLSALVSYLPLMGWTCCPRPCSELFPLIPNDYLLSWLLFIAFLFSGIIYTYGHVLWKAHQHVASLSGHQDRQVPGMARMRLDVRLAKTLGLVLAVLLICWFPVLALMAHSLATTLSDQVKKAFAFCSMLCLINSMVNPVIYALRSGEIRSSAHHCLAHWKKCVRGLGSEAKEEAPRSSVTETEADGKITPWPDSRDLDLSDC
T2 sequence (P21554 whole entry, the tested form may be a part): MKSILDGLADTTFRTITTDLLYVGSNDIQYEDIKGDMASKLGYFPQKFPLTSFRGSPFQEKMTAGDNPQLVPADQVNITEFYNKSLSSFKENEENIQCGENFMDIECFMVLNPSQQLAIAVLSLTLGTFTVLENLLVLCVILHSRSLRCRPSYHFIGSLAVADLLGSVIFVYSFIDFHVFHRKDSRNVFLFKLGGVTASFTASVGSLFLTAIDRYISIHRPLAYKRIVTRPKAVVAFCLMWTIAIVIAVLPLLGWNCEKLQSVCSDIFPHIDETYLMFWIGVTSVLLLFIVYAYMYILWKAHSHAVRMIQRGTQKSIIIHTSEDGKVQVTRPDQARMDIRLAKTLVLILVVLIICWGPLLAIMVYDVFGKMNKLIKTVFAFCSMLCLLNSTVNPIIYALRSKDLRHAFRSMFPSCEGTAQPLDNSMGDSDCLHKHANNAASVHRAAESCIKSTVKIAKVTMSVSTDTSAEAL

The term EC50 denotes the concentration that produces a half-maximal response. Turning to `CC/C=C\C[C@H](O)/C=C/C=C\C=C\[C@H](O)C/C=C\C/C=C\CCC(=O)NCCO` (single isomer, unassigned) [10,17-diHDHEA, 10,17-dihydroxydocosa-4Z,7Z,11,13Z,15,19Z-hexaenoylethanolamide], the “Effect on PMN chemotaxis (in words)” value in the experiment on human PMN (setting [8]) is on record as “did not significantly regulate chemotaxis”; with human PMN (10 μM compound, IL-8 gradient), “rapidly stopped PMN chemotaxis”. In addition, in experiment [1], the “Decrease of platelet-monocyte aggregate formation” value is about 30%. Besides, in experiment [1] (100 pM compound, bell-shaped dose response), the “Maximum reduction of platelet-monocyte aggregate formation” value is reported as about 40%. Further, the “Effect on platelet-leukocyte aggregate formation (in words)” value is given as “prevented formation of platelet-leukocyte aggregates” in [2] and “block PAF-stimulated platelet-leukocyte aggregate formation” in [2] (listed as 10,17S-diHDHEA). Besides, the concentration giving a half-maximal response (EC50) on human CB2 receptor [3] (setting [9]) amounted to 0.39 nM. The “Effect on P-selectin surface expression of platelets (in words)” value in the experiment with platelet P-selectin is recorded as “blocked P-selectin surface expression”; in the experiment with platelet P-selectin (listed as 10,17-diHDEA) it was “inhibited”. Further, the “Decrease of platelet-PMN aggregates” value in the experiment on platelet-PMN aggregates (human whole blood) is 25%-35%. In the experiment with platelet-PMN aggregates (concentrations as low as 10 pM), the “Inhibition of PMN-platelet aggregate formation (in words)” value is given as “inhibited”. For the same compound, the “Activation of CB1 receptors (in words)” value on CB1 receptor [4] is “activated CB1 receptors but required much higher concentrations”.

Turning to `CC/C=C\C[C@H](O)/C=C/C=C\C/C=C\C/C=C\C=C\[C@H](O)CCC(=O)NCCO` [4,17-diHDHEA, 4,17-dihydroxydocosa-5,7Z,10Z,13Z,15,19Z-hexaenoylethanolamide], the “Effect on PMN chemotaxis (in words)” value with human PMN (setting [8]) is “did not significantly regulate chemotaxis”.

`CC/C=C\C[C@H](O)/C=C/C=C\C/C=C\C=C\[C@H](O)C/C=C\CCC(=O)NCCO` [7,17-diHDHEA, 7,17-dihydroxydocosa-4Z,8E,10Z,13Z,15,19Z-hexaenoylethanolamide]: in the experiment on human PMN (setting [8]), the “Effect on PMN chemotaxis (in words)” value is given as “did not significantly regulate chemotaxis”.

Turning to `CCCCC[C@H](O)/C=C/C=C\C/C=C\C/C=C\CCCC(=O)NCCO` [15(S)-HAEA, 15(S)-HETE ethanolamide, reference compound], the “Stimulation of CB2 receptors (in words)” value at human CB2 receptor [3] (beta-arrestin system, tested dose range 1 pM to 100 nM) is “did not stimulate CB2 receptors”.

`CC/C=C\CC1OC1C(O)/C=C\C/C=C\C/C=C\C/C=C\CCC(=O)NCCO` (centres unmarked) [15-HEDPEA, 15-hydroxy-16(17)-epoxydocosa-4Z,7Z,10Z,13Z,19Z-pentaenoylethanolamide]: the “Effect on PMN chemotaxis (in words)” value in the experiment with human PMN (setting [8]) is “effectively stopped PMN chemotaxis; also recorded: stopped further PMN migration”. For the same compound, the “Time after which further PMN migration stopped” value with human PMN (10 nM compound, IL-8 gradient) was about 4 min. Moreover, the “Decrease of platelet-monocyte aggregate formation” value in experiment [1] is given as about 30%. Besides, the “Effect on platelet-leukocyte aggregate formation (in words)” value in experiment [2] was “block PAF-stimulated platelet-leukocyte aggregate formation; also recorded: prevented formation of platelet-leukocyte aggregates”. Moreover, the “Reduction of lung PMN infiltration (MPO) compared to vehicle” value in [5] (1 μg/mouse intravenously, 1 h ischemia, 2 h reperfusion) was about 50%. For the same compound, the “Organ protection (in words)” value in [5] (mouse reperfusion second organ injury, 1 μg/mouse) is given as “organ protective”. The EC50 on human CB2 receptor [3] (setting [9]) was 0.1 nM. The “Activation of CB1 receptors (in words)” value on CB1 receptor [4] is reported as “activated CB1 receptors but required much higher concentrations”.

For the compound `COc1ccc(C(=O)c2c(C)n(CCN3CCOCC3)c3cc(I)ccc23)cc1` [AM630], the “AM630 inhibition of CB2 activation stimulated with 15-HEDPEA” value at human CB2 receptor [6] (15-HEDPEA 10 nM) was “inhibited activation”. For the same compound, the “AM630 inhibition of CB2 activation stimulated with AEA” value at human CB2 receptor [6] (AEA 10 nM, positive control) is reported as “inhibited activation”. Moreover, the “AM630 inhibition of CB2 interaction with 10,17-diHDHEA” value on human CB2 receptor [6] (at higher concentration, n=3, data not shown) was “inhibited GPCR CB2 interaction”.

As a reminder, the Ki is the dissociation constant of the complex between target and ligand, obtained from inhibition or displacement. For `CCC=CCC=CCC=CCC=CCC=CCC=CCCC(=O)NCCO` [DHEA, docosahexaenoylethanolamide, reference compound], the “Effect on platelet-leukocyte aggregate formation (in words)” value in [2] is “did not significantly inhibit; also recorded: not active”. The Ki at CB1 receptor [7] is 324 nM. This compound also returned an EC50 at human CB2 receptor [3] of 9.8 nM.
